Experimental data published in patent US20140179681A1, “METHODS AND COMPOSITIONS OF TARGETED DRUG DEVELOPMENT” (priority 2010, published 2014).
pIC50: −log10 of the molar value. Counter-ions that a name gives are not always drawn. Like-named read-outs stand apart in the source and are kept apart here.

What was measured:
[1] = test system: epithelial carcinoma A431 cell line; assay: MTT Cell Proliferation Assay, A431 cells; assay type: cell-based; conditions: for IC50 / pIC50: Homo sapiens; for IC50: A-431, 72 h, Table 10, three day treatment, unit not printed (doses in μM), read-out: MTT assay (first value); for MTT Assay IC50(A431/MDBK): ratio in parentheses: ratio MDBK IC50 / A431 IC50 (selectivity)
Procedure, shortened: (§1)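 Viability was measured by mitochondrial MTT reduction after cells were exposed to compound for 3 days in reduced-serum medium. Inhibition was calculated per plate against 0.5% DMSO controls.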

MDBK line = assay: MTT Cell Proliferation Assay, MDBK cells; assay type: cell-based, bovine; conditions: for IC50 / pIC50: Bos taurus, MDBK; for IC50: 72 h, Table 10, three day treatment, unit not printed (doses in μM), read-out: MTT assay (second value)
Procedure, shortened: as §1

EGFR = target: T1, EGFR (Homo sapiens, UniProt P00533); assay: EGFR in-cell Western (ICW) screening protocol (EGFR inhibition assay); assay type: cell-based; set-up: ICW 1 / ICW 2 / ICW Avg: unit not given here; conditions: for ICW assay: Table 10; for ICW Avg / ICW 1 / ICW 2: ICW assay; for ICW Avg: average of runs 1 and 2; for ICW 1: run 1; for ICW 2: run 2
T1 construct: host or cells: A431
T1 sequence (P00533 25-1210): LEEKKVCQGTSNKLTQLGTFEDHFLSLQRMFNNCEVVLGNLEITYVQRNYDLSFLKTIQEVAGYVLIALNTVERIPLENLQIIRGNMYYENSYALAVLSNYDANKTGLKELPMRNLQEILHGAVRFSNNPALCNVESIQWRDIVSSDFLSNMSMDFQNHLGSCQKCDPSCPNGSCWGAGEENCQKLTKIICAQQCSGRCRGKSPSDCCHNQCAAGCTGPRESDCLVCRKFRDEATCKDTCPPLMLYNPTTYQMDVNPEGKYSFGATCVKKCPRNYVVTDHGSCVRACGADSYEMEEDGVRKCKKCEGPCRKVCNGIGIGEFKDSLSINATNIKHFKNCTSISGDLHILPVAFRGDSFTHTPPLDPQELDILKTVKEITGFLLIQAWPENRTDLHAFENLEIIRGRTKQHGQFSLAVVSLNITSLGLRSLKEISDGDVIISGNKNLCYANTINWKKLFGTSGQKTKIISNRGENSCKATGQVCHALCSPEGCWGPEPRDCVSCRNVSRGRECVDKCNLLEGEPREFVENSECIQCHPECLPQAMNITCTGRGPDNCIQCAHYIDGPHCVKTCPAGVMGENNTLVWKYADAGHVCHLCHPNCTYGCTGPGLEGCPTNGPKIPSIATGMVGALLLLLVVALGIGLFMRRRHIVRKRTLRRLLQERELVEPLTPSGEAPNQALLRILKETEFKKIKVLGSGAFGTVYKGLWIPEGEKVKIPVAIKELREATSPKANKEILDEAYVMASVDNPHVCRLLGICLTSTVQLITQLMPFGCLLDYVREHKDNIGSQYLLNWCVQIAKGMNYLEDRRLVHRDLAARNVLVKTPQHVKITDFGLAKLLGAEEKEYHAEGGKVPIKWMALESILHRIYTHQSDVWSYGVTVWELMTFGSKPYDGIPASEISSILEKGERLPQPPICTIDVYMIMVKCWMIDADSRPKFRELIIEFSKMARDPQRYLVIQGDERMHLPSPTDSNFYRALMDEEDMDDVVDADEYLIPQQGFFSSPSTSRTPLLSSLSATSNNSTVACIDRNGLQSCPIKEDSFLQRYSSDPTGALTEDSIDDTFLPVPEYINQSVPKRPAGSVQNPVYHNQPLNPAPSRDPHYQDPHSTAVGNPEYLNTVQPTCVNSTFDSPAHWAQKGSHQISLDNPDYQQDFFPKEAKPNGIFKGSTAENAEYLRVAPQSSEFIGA
Procedure, shortened: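 Serum-starved A431 cells (2 h) were pretreated with compound for 4 h at 37° C, then stimulated with EGF (10 ng/ml final, or 6.6 or 12.5 ng/ml in some runs) for 10 min. After formaldehyde fixation, phospho-EGFR (Tyr1173, or Tyr1045 in some runs) and total EGFR were detected by in-cell Western immunostaining.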

[2] = % Inhibition of EGF dependent EGFR phosphorylation in A431 cells, compound 125 μM in assay
[3] = A-431, A431 cells, first value of cell, read-out: MTT Assay IC50(A431/MDBK): A431
[4] = MDBK cells, second value of cell, read-out: MTT Assay IC50(A431/MDBK): MDBK
[5] = A-431, first value of 'a/b (c)', taken as A431 cells, read-out: MTT Screen, first value of cell
[6] = second value of 'a/b (c)', taken as MDBK cells, read-out: MTT Screen, second value of cell

Compound | IC50 ([1]; first of x/y(ratio): A431) [µM] | ICW assay (EGFR; [2]) | ICW Avg (EGFR) | ICW 1 (EGFR) | ICW 2 (EGFR) | ICW Screen (ICW Inhibition) (EGFR) | IC50 (MDBK line; second of x/y(ratio): MDBK) [µM] | other results
CCc1ccc2c(C)nc(Nc3nc(C)c(CCC(C)C)c(=O)[nH]3)nc2c1 [11771 + TFA] |  |  | 46.95 | 51.58 | 42.32 |  |  | pIC50 [1, 3]: 4.74; MTT Assay IC50(A431/MDBK): ratio in parentheses [1]: 2.32; pIC50 (MDBK line; [4]): 4.38
CCCCCc1c(C)nc(Nc2nc(C)c3cc(CC)ccc3n2)[nH]c1=O [12226 + TFA] |  |  | 38.74 | 42.24 | 35.23 |  |  | pIC50 [1, 3]: 4.37; MTT Assay IC50(A431/MDBK): ratio in parentheses [1]: 1.15; pIC50 (MDBK line; [4]): 4.31
Cc1ccc(NS(=O)(=O)c2ccc(NC(=S)NC(=O)CCc3ccccc3)cc2)cc1C [AD4-11419] |  |  |  |  |  | 40.289 |  | pIC50 [1, 5]: 4.50; pIC50 (MDBK line; [6]): 4.41
CN1CCN(S(=O)(=O)c2ccc(NC(=S)NC(=O)/C=C/c3ccc(F)cc3)cc2)CC1 [AD4-12107] |  |  |  |  |  | 41.933 |  | pIC50 [1, 5]: 4.85; MTT Screen, second value of cell (MDBK line; second value of 'a/b (c)', taken as MDBK cells): non- conver- gent
CCC(c1ccccc1)S(=O)(=O)c1ccc(NC(=S)NC(=O)C(C)C)cc1 (stereo not drawn) [AD4-12029] |  |  |  |  |  | 30.376 |  | pIC50 [1, 5]: 4.60; pIC50 (MDBK line; [6]): 4.29
COc1cc(NS(=O)(=O)c2ccc(NC(=S)NC(=O)/C=C/c3ccccc3)cc2)nc(OC)n1 [AD4-12122] |  |  |  |  |  | 35.068 |  | MTT Screen, first value of cell ([1]; first value of 'a/b (c)', taken as A431 cells): non- conver- gent; pIC50 (MDBK line; [6]): 4.39
COc1ccc(N2CCN(Cc3cc(=O)oc4cc5c(cc34)OCO5)CC2)cc1 [AD4-10209] |  |  |  |  |  |  |  | pIC50 ([1]; A-431, Table 11, first of x/y(ratio): A431, unit inferred, read-out: MTT Follow-up (first value)): 5.60; pIC50 (MDBK line; Table 11, second of x/y(ratio): MDBK, unit inferred, read-out: MTT Follow-up (second value)): 4.30; ICW Screen (EGFR; Table 11, % Inhibition of EGF dependent EGFR phosphorylation in A431 cells, compound 125 μM in assay): −10.6
Cc1ccc2nc(Nc3nc(=O)c(C)c(C)[nH]3)nc(C)c2c1 [12629 + TFA] |  |  | 25.89 | 19.83 | 31.95 |  |  | pIC50 [1, 3]: 4.90; MTT Assay IC50(A431/MDBK): ratio in parentheses [1]: 0.85; pIC50 (MDBK line; [4]): 4.97
Cc1ccc(NS(=O)(=O)c2ccc(NC(=S)NC(=O)C3CCCCC3)cc2)cc1C [AD4-10708] |  |  |  |  |  | 37.233 |  | pIC50 [1, 5]: 4.78; pIC50 (MDBK line; [6]): 4.44

Continued, in another order:

IC50 ([1]; first of x/y(ratio): A431) [µM] | ICW assay (EGFR; [2]) | ICW Avg (EGFR) | ICW 1 (EGFR) | ICW 2 (EGFR) | ICW Screen (ICW Inhibition) (EGFR) | Compound | IC50 (MDBK line; second of x/y(ratio): MDBK) [µM] | other results
10.4 | 42.006 |  |  |  |  | COc1ccc(NC(=S)Nc2ccc(S(=O)(=O)Nc3cc(Cl)cc(Cl)c3)cc2)cc1OC [AD4-12481] | 11 | 
6.97 | 25.1182 |  |  |  |  | COc1ccccc1NC(=S)Nc1ccc(S(=O)(=O)Nc2ccc(Cl)cc2)cc1 [AD4-12502] | 5.46 | 
4.03 | 50.7196 |  |  |  |  | CCC(C)c1ccc(NC(=S)Nc2ccc(S(=O)(=O)Nc3c(C)cc(C)cc3C)cc2)cc1 (stereo not drawn) [AD4-12403] | 5.3 | 
5.59 | 79.1185 |  |  |  |  | Cc1cccc(NC(=S)Nc2ccc(S(=O)(=O)Nc3ccc(Cl)c(Cl)c3)cc2)c1 [AD4-12442] | 5.76 | 
5.47 | 108.826 |  |  |  |  | CCc1ccc(NC(=S)Nc2ccc(S(=O)(=O)Nc3cc(Cl)cc(Cl)c3)cc2)cc1 [AD4-12436] | 5.53 | 
 |  | 82.50 | 77.05 | 87.95 |  | Cc1ccc2c(C)nc(Nc3nc(-c4ccccc4C)cc(=O)[nH]3)nc2c1 [compound 11511] |  | pIC50 ([1]; A-431, follow-up MTT, A431 cells, first value, read-out: MTT Follow-up: A431): 5.90; MTT Follow-up: ratio in parentheses ([1]; follow-up MTT, ratio MDBK/A431): 0.45; pIC50 (MDBK line; follow-up MTT, MDBK cells, second value, read-out: MTT Follow-up: MDBK): 6.24
 |  | 25.25 | 26.79 | 23.71 |  | Cc1ccc2c(C)nc(Nc3nc(CSc4nnc(C)s4)cc(=O)[nH]3)nc2c1 [compound 11469] |  | pIC50 [1, 3]: 4.99; MTT Assay IC50(A431/MDBK): ratio in parentheses [1]: 1.13; pIC50 (MDBK line; [4]): 4.94
